Assay results taken from patent US20250368678A1, “19-NOR-C3,3-DISUBSTITUTED C21-AZACYCLO-S[…] AND METHOD FOR USING SAME” (SHANDONG LUYE PHARMACEUTICAL CO., LTD., priority 2022, published 2025).

Tested on: not listed separately
Assay: In vitro liver microsomal stability assay, human
Assay type: in vitro ADME
Conditions: Human liver microsomes
Description: (§1) 1) Preparation of working solutions of test samples: The test samples were diluted with acetonitrile to 100 M.
(§2) 2) Preparation of a working solution of liver microsomes: liver microsomes were diluted with 100 mM phosphate-buffered saline to 0.56 mg/mL.
(§3) 3) Preparation of a working solution of reduced nicotinamide adenine dinucleotide (NADPH): A proper amount of NADPH was weighed out and diluted with phosphate-buffered saline to 20 mM, and an equal volume of a 60 mM MgCl2 solution was added.
(§4) 4) Preparation of a stop solution: Tolbutamide was diluted with acetonitrile to 20 ng/mL, serving as a stop solution containing an internal standard.
(§5) 1) Incubation anti-adsorption EP tubes were prepared and labeled with species, test/control sample, time points (0, 5, 10, 20, 30, 60 min, Blank60, and NCF60), etc.
(§6) 2) 2 L of test or control sample working solution, diluted with acetonitrile to 100 M, and 178 L of liver microsome working solution were added to each tube. For the Blank60 tube, 2 L of acetonitrile was added instead of a test sample. The tubes were pre-incubated in a 37° C. water bath for about 10 min, with each sample tested in triplicate.
(§7) 3) After the pre-incubation was complete, 20 L of NADPH working solution was added to each tube except for the 0 min and NCF60 tubes to start reactions, and 20 L of phosphate-buffered saline (containing 30 mM MgCl2) was added to the NCF60 tube. In the incubation system, the final concentrations of the test and control samples were 1 M, the final concentration of liver microsomes was 0.5 mg/mL, the final concentration of NADPH was 1 mM, and the final concentration of MgCl2 was 3 mM.
(§8) 4) For the 0 min sample, 600 L of stop solution was added before adding the NADPH working solution. After each sample was incubated for its respective time, 600 L of stop solution was added to stop the reaction.
(§9) 5) After the reaction was stopped, each sample was vortexed for 30 s and then centrifuged at 13,500 rpm for 10 min. 100 L of the supernatant was transferred to an EP tube, and 100 L Milli-Q water was added. The mixture was well mixed by vortexing and analyzed by LC-MS/MS.
(§10) 6) Testosterone and dextromethorphan were used as positive control samples under the same conditions to assess the stability and reliability of the system.
(§11) Parameters of the test samples, including their half-lives, intrinsic clearance rates in liver microsomes, and hepatic intrinsic clearance rates, were calculated based on the percentage of test sample remaining.

SMILES | CLint scaled at 1 µM [mL/min/kg] | half-life at 1 µM [h] | T1/2 [h]
C[C@@]1(O)CC[C@H]2[C@H](CC[C@@H]3[C@@H]2CC[C@]2(C)[C@@H](C(=O)Cn4cnn(-c5ccnc(OC(F)(F)F)c5)c4=O)CC[C@@H]32)C1 [Compound 38] | < 6.75 | > 3.1 | 
C[C@@]1(O)CC[C@H]2[C@H](CC[C@@H]3[C@@H]2CC[C@]2(C)[C@@H](C(=O)Cn4cnn(-c5ccc(F)cc5)c4=O)CC[C@@H]32)C1 [Compound 4] | 13 | 1.6 | 
C[C@@]1(O)CC[C@H]2[C@H](CC[C@@H]3[C@@H]2CC[C@]2(C)[C@@H](C(=O)Cn4cnn(-c5cc(Cl)ccn5)c4=O)CC[C@@H]32)C1 [Compound 26] | 18 |  | 1.14

Same assay, conditions: Human liver microsomes 0.5 mg/mL, NADPH

SMILES | Remaining amount % at 60 min [%]
C[C@@]1(O)CC[C@H]2[C@H](CC[C@@H]3[C@@H]2CC[C@]2(C)[C@@H](C(=O)Cn4cnn(-c5ccnc(OC(F)(F)F)c5)c4=O)CC[C@@H]32)C1 [Compound 38] | 97.3
C[C@@]1(O)CC[C@H]2[C@H](CC[C@@H]3[C@@H]2CC[C@]2(C)[C@@H](C(=O)Cn4cnn(-c5ccc(F)cc5)c4=O)CC[C@@H]32)C1 [Compound 4] | 64.0
C[C@@]1(O)CC[C@H]2[C@H](CC[C@@H]3[C@@H]2CC[C@]2(C)[C@@H](C(=O)Cn4cnn(-c5cc(Cl)ccn5)c4=O)CC[C@@H]32)C1 [Compound 26] | 53.7

Same assay, conditions: Human liver microsomes; read-out: CLint(mic)

SMILES | microsomal CLint at 1 µM [µL/min/mg]
C[C@@]1(O)CC[C@H]2[C@H](CC[C@@H]3[C@@H]2CC[C@]2(C)[C@@H](C(=O)Cn4cnn(-c5ccnc(OC(F)(F)F)c5)c4=O)CC[C@@H]32)C1 [Compound 38] | < 7.5
C[C@@]1(O)CC[C@H]2[C@H](CC[C@@H]3[C@@H]2CC[C@]2(C)[C@@H](C(=O)Cn4cnn(-c5ccc(F)cc5)c4=O)CC[C@@H]32)C1 [Compound 4] | 14
C[C@@]1(O)CC[C@H]2[C@H](CC[C@@H]3[C@@H]2CC[C@]2(C)[C@@H](C(=O)Cn4cnn(-c5cc(Cl)ccn5)c4=O)CC[C@@H]32)C1 [Compound 26] | 20

Tested on: not listed separately
Assay: In vitro liver microsomal stability assay, rat
Assay type: in vitro ADME
Conditions: Rat liver microsomes
Description: as §1, §2, §3, §4, §5, §6, §7, §8, §9, §10, §11

SMILES | CLint scaled at 1 µM [mL/min/kg] | half-life at 1 µM [h] | T1/2 [h]
C[C@@]1(O)CC[C@H]2[C@H](CC[C@@H]3[C@@H]2CC[C@]2(C)[C@@H](C(=O)Cn4cnn(-c5ccnc(OC(F)(F)F)c5)c4=O)CC[C@@H]32)C1 [Compound 38] | 12 | 3.5 | 
C[C@@]1(O)CC[C@H]2[C@H](CC[C@@H]3[C@@H]2CC[C@]2(C)[C@@H](C(=O)Cn4cnn(-c5ccc(F)cc5)c4=O)CC[C@@H]32)C1 [Compound 4] | 93 | 0.45 | 
C[C@@]1(O)CC[C@H]2[C@H](CC[C@@H]3[C@@H]2CC[C@]2(C)[C@@H](C(=O)Cn4cnn(-c5cc(Cl)ccn5)c4=O)CC[C@@H]32)C1 [Compound 26] | 120 |  | 0.347

Same assay, conditions: Rat liver microsomes 0.5 mg/mL, NADPH

SMILES | Remaining amount % at 60 min [%]
C[C@@]1(O)CC[C@H]2[C@H](CC[C@@H]3[C@@H]2CC[C@]2(C)[C@@H](C(=O)Cn4cnn(-c5ccnc(OC(F)(F)F)c5)c4=O)CC[C@@H]32)C1 [Compound 38] | 82.9
C[C@@]1(O)CC[C@H]2[C@H](CC[C@@H]3[C@@H]2CC[C@]2(C)[C@@H](C(=O)Cn4cnn(-c5ccc(F)cc5)c4=O)CC[C@@H]32)C1 [Compound 4] | 37.09
C[C@@]1(O)CC[C@H]2[C@H](CC[C@@H]3[C@@H]2CC[C@]2(C)[C@@H](C(=O)Cn4cnn(-c5cc(Cl)ccn5)c4=O)CC[C@@H]32)C1 [Compound 26] | 12.7

Same assay, conditions: Rat liver microsomes; read-out: CLint(mic)

SMILES | microsomal CLint at 1 µM [µL/min/mg]
C[C@@]1(O)CC[C@H]2[C@H](CC[C@@H]3[C@@H]2CC[C@]2(C)[C@@H](C(=O)Cn4cnn(-c5ccnc(OC(F)(F)F)c5)c4=O)CC[C@@H]32)C1 [Compound 38] | 7
C[C@@]1(O)CC[C@H]2[C@H](CC[C@@H]3[C@@H]2CC[C@]2(C)[C@@H](C(=O)Cn4cnn(-c5ccc(F)cc5)c4=O)CC[C@@H]32)C1 [Compound 4] | 51
C[C@@]1(O)CC[C@H]2[C@H](CC[C@@H]3[C@@H]2CC[C@]2(C)[C@@H](C(=O)Cn4cnn(-c5cc(Cl)ccn5)c4=O)CC[C@@H]32)C1 [Compound 26] | 67

Target: T1, α4β3δ GABA receptors (α4β3δ-HEK-FlpIn-TRex stable cell strain) (Homo sapiens, UniProt P28472+P48169)
T1 construct: expressed in transfected cells
T1 sequence (P48169 36-554): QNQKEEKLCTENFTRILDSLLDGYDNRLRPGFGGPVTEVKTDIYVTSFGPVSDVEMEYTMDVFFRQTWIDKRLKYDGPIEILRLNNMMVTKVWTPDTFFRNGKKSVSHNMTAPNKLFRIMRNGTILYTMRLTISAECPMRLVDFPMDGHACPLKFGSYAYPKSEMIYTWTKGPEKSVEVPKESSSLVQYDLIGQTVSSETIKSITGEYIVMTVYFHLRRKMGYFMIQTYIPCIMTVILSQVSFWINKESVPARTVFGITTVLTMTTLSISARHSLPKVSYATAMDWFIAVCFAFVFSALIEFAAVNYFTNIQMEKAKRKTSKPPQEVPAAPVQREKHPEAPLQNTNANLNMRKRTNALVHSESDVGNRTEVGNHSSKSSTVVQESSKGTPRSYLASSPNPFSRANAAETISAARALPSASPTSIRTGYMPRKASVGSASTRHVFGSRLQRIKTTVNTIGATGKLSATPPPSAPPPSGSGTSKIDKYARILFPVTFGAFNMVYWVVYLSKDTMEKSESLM
T1 sequence (P28472 26-473): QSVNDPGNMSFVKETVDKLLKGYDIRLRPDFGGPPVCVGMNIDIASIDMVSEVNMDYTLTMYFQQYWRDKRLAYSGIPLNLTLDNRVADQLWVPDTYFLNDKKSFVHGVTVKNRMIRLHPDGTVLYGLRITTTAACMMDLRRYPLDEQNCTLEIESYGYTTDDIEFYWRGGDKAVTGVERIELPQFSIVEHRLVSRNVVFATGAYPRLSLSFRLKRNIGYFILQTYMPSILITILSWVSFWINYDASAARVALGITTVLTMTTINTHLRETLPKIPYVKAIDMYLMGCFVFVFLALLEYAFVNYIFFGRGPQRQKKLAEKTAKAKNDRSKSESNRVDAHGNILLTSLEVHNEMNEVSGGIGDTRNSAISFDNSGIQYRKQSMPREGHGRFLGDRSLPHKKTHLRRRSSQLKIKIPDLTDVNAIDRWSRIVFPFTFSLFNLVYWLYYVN
T1 sequence (O14764 25-452 partner): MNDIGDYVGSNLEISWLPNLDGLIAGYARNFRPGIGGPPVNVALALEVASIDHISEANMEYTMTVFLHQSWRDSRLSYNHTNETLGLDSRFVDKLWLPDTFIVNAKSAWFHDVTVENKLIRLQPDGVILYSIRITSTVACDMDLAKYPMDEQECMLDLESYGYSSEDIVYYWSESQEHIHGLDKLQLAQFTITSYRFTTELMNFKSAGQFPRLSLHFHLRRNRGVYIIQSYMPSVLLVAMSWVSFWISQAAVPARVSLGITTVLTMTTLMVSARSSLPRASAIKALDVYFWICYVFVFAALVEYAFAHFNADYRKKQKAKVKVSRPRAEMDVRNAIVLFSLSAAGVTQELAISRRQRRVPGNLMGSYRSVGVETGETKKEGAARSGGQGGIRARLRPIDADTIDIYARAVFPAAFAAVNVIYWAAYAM
Assay: Whole-cell patch clamp, extrasynaptic functional activity (positive allosteric regulation of GABA-induced current)
Assay type: cell-based
Conditions: patch clamp -60 mV, GABA at EC10-20, α4β3δ-HEK-FlpIn-TRex cells
Description: (§12) The α4β3δ-HEK-FlpIn-TRex stable cell strain was cultured in DMEM+10% FBS complete culture medium, with the selective antibiotics being 10 μg/mL Blasticidin, 100 µg/mL Zeocin, 100 µg/mL Hygromycin, and 0.2 μg/mL Puromycin. The α1β2γ2-CHO-TRex stable cell strain was cultured in DMEM/F12+10% FBS complete culture medium, with the selective antibiotics being 10 μg/mL Blasticidin, 100 μg/mL Zeocin, 300 μg/mL Hygromycin, and […] Puromycin.
(§13) The day before the patch clamp experiment, cells were seeded onto 12 mm polylysine-coated coverslips and then cultured in 35 mm culture dishes, and tetracycline ([…]) was added to induce the expression of GABA receptors. The extracellular fluid had the following composition (in mM): 140 NaCl, 3 KCl, 1.5 MgCl2, 2 CaCl2, 10 HEPES, and 10 Glucose. After thorough mixing, NaOH was added to adjust the pH to 7.4, and sucrose was added to adjust the osmotic pressure to 300-320 mOsm. The fluid was stored at 4° C. The electrode internal solution had the following composition (in mM): 145 KCl, 1 MgCl2, 5 EGTA, 10 HEPES, and 5 MgATP. After thorough mixing, KOH was added to adjust the pH to 7.3, and sucrose was added to adjust the osmotic pressure to 290-300 mOsm. The solution was filtered through a […] before use.
(§14) Whole-cell patch clamp recording was mainly employed in this experiment. The membrane potential was clamped at −60 mV, and receptors were activated using GABA at an EC10-20 concentration ([…]). The test compounds were dissolved in 0.1% DMSO, and perfusion was performed for 30 s prior to GABA stimulation. Finally, the positive allosteric regulating effects of the test compounds on α1β2γ2 or α4β3δ were determined.
(§15) The experimental result for each concentration was expressed as a fold increase in the GABA-induced current caused by the compound. […] At least 5 concentrations are tested to obtain a complete EC50 curve and EC50 values. All experiments were repeated on no less than 3 cells, and data processing was completed using GraphPad prism software. The dose-response curves were fitted using the Hill equation, and the half-maximal activating concentration EC50 and Emax were finally obtained.

SMILES | EC50 [nM] | Emax [%]
C[C@@]1(O)CC[C@H]2[C@H](CC[C@@H]3[C@@H]2CC[C@]2(C)[C@@H](C(=O)Cn4cnn(-c5ccnc(OC(F)(F)F)c5)c4=O)CC[C@@H]32)C1 [Compound 38] | 115 | 625
C[C@@]1(O)CC[C@H]2[C@H](CC[C@@H]3[C@@H]2CC[C@]2(C)[C@@H](C(=O)Cn4cnn(-c5ccc(F)cc5)c4=O)CC[C@@H]32)C1 [Compound 4] | 170 | 410
C[C@@]1(O)CC[C@H]2[C@H](CC[C@@H]3[C@@H]2CC[C@]2(C)[C@@H](C(=O)Cn4cnn(-c5cc(Cl)ccn5)c4=O)CC[C@@H]32)C1 [Compound 26] |  | 589

Target: T2, α1β2γ2 GABA receptors (α1β2γ2-CHO-TRex stable cell strain) (Homo sapiens, UniProt P14867+P47870)
T2 construct: expressed in transfected cells
T2 sequence (P14867 28-456): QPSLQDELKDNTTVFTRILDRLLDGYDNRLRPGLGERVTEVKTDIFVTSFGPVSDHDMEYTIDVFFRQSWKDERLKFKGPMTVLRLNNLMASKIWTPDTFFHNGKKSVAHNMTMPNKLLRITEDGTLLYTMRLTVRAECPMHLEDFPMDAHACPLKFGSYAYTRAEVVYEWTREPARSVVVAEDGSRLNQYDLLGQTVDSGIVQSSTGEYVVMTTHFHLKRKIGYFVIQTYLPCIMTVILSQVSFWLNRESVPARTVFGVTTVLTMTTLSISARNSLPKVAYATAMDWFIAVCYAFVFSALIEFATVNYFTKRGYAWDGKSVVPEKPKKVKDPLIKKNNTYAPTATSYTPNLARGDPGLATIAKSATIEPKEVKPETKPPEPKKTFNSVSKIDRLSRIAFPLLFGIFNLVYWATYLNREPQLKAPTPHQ
T2 sequence (P47870 25-512 limits assumed): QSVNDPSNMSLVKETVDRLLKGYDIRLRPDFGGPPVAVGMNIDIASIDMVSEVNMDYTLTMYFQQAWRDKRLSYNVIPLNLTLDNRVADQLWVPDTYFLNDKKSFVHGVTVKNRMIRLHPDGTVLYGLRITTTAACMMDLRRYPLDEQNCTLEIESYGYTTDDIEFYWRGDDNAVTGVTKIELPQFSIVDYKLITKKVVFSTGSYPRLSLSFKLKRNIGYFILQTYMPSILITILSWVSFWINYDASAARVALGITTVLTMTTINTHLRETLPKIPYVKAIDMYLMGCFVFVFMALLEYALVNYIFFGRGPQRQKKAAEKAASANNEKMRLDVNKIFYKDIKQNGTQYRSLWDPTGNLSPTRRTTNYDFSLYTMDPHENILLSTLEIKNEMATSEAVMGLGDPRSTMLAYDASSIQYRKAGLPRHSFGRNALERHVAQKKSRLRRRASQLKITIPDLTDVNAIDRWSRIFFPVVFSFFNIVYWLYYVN
T2 sequence (P18507 40-475 partner): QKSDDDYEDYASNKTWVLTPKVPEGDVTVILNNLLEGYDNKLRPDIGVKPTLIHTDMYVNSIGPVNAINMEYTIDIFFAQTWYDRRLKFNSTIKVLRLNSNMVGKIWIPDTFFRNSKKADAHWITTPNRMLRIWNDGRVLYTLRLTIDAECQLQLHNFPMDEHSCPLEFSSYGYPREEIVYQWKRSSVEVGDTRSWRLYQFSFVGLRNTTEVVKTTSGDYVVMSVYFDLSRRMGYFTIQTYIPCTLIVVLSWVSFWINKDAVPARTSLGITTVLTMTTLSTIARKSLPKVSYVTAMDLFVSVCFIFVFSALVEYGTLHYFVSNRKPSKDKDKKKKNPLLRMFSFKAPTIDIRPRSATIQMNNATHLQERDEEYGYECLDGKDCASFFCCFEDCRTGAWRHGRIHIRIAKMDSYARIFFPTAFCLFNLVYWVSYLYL
Assay: Whole-cell patch clamp, intrasynaptic functional activity (positive allosteric regulation of GABA-induced current)
Assay type: cell-based
Conditions: patch clamp -60 mV, GABA at EC10-20, α1β2γ2-CHO-TRex cells
Description: as §12, §13, §14, §15

SMILES | EC50 [nM] | Emax [%]
C[C@@]1(O)CC[C@H]2[C@H](CC[C@@H]3[C@@H]2CC[C@]2(C)[C@@H](C(=O)Cn4cnn(-c5ccnc(OC(F)(F)F)c5)c4=O)CC[C@@H]32)C1 [Compound 38] | 55 | 700
C[C@@]1(O)CC[C@H]2[C@H](CC[C@@H]3[C@@H]2CC[C@]2(C)[C@@H](C(=O)Cn4cnn(-c5ccc(F)cc5)c4=O)CC[C@@H]32)C1 [Compound 4] | 220 | 390
C[C@@]1(O)CC[C@H]2[C@H](CC[C@@H]3[C@@H]2CC[C@]2(C)[C@@H](C(=O)Cn4cnn(-c5cc(Cl)ccn5)c4=O)CC[C@@H]32)C1 [Compound 26] |  | 624
